The melting point is the temperature of the solid-liquid transition.

Molecules are shown by their SMILES. Counter-ions that a name gives are not always drawn.

Consider `O=C(Nc1cccc(C(=O)C2CCNCC2)c1)c1ccc(F)cc1` (as salt: hydrochloride), for which the melting point is more than 225 °C.
`Cl.Nc1cccc(C(=O)C2CCNCC2)c1` gave a melting point of 208 to 210 °C.
The compound `CN1CCC(C(=O)c2cccc(NC(=O)c3ccc(F)cc3F)c2)CC1` (as salt: hydrochloride) showed a melting point of 181 to 183 °C.
The figure for `CN1CCC(C(=O)c2cccc(NC(=O)c3ccc(O)cc3)c2)CC1` (as salt: hydrochloride) is more than 200 °C; for `CN1CCC(C(=O)c2cccc(NC(=O)c3ccco3)c2)CC1` (as salt: hydrochloride) it is more than 200 °C.
The figure for `CN1CCC(C(=O)c2cccc(NC(=O)c3ccncc3)c2)CC1` (as salt: hydrochloride) is more than 200 °C; for `CN1CCC(C(=O)c2cccc(NC(=O)c3ccc(F)cc3I)c2)CC1.Cl` it is more than 250 °C.

For the origin of these results see US6777428B1, “5-HT1f agonist” (Eli Lilly and Company, priority 1999, dated 2004).
